Where no end group is shown, it is not given here.
Tests used:
CIA mouse models = experiment: collagen-induced arthritis (CIA) mouse models; type: in vivo, DBA/1 mice; settings: for clinical scoring / swelling of joints / swelling of paws: 5 times
TLR-4 = experiment: Western blot of TLR-4 protein in LPS-induced rat synovial cells; type: cell-based
Procedure: 3.1 U937 cells are added to a 6-well plate (1.5×10^5 cells/mL), PMA (25 ng/mL) is used for induction for 48 h, and the cells adhere and differentiate into macrophages. Positive drug Adalimumab (25 μg/mL, 50 μg/mL, 100 μg/mL, 200 μg/mL, 400 μg/mL), Avastin (25 μg/mL, 50 μg/mL) are added, the final concentrations of mPEG-SC20k-HM-3 are 2.25, 4.5, 9.0, 13.5, 18.0, 36 μmol/L, and isovolumetric PBS is added to the blank group and the model group. The cells are incubated in a CO2 incubator at 37° C. for 24 or 48 h. Rat synovial cells are induced with LPS for 24 h and then mPEG-SC20k-HM-3 is administrated to final concentrations of 2.25, 4.5, 9.0, 13.5, 18.0 μmol/L, and the cells are incubated in a CO2 incubator at 37° C. for 48 h.
(§1) 3.3 A protein extract solution is added at 20 μL/1×10^5 cells, and the cells are pipetted and dispersed, and stand at 4° C. for 30 min to lyse the cells.
(§2) 3.4 1/4 volume of 5×protein loading buffer is added, and boiling water bath is performed for 5-10 min.
(§3) 3.5 20 μL of protein sample is taken and 10% SDS-PAGE electrophoresis is performed.
(§4) 3.6 The protein on the gel is transferred to the PVDF membrane by using a wetting transfer method with a constant current of 100 mA for 1-2.5 h.
(§5) 3.7 The PVDF membrane is blocked with a blocking solution at room temperature for 2 h.
3.8 The membrane is washed for 3 times with PBST, 5 min each time. […]

AIA rat models = experiment: adjuvant-induced arthritis (AIA) rat models; type: in vivo, SD rats; settings: for clinical scoring / swelling of left paw / swelling of right paw: 5 times
IL-1β = IL-1β production by mouse peritoneal macrophages (LPS, ELISA); type: cell-based, C57BL/6 mice; settings: LPS 5 μg/mL, 48 h
Procedure: In the test, mice are divided into […], namely a blank control group, a lipopolysaccharide (LPS) model group, a dexamethasone group, and mPEG-SC20k-HM-3 groups at different doses (0.56, 1.12, 2.25, 4.50, 9.00 μmol/L).
(1) IL-1 production: mice are intraperitoneally injected with 1 mL of broth medium (containing 6% of starch). After three days, mouse peritoneal macrophages are taken aseptically and washed twice with RPMI 1640 medium, and the cell concentration is adjusted to 2×10^6 cells/mL. The cells are injected into a 24-well culture plate, 1 mL per well, and the cells are incubated in a cell incubator for 3 h, and vibrated once every 30 min to make the cells fully adhere. Then the cells are washed twice with culture solution to remove non-adherent cells, are cultured continuously for 48 h after administration, and are centrifuged at 1000 r for 15 min. The supernatant is collected as a sample with IL-1β to be tested. (2) Determination of IL-1 content: various solutions are prepared; tested samples and standard substances with different concentrations (100 μL/well) are added into the corresponding wells, reaction wells are sealed with plate-sealing adhesive tape, and incubation is performed at 37° C. for 90 min; the plate is washed four times; biotinylated antibody working solution (100 μL/well) is added, the reaction wells are sealed with plate-sealing adhesive tape, and incubation is performed at 37° C. for 60 min; the plate is washed four times; enzyme conjugate working solution (100 μL/well) is added, the reaction wells are sealed with plate-sealing adhesive tape, and incubation is performed at 37° C. for 30 min; the plate is washed four times; chromogenic reagent (100 μL/well) is added, and incubation is performed at 37° C. for 10-20 min in the absence of light; stop solution (100 μL/well) is added, and the OD 450 nm absorbance is measured immediately after uniform mixing (within 5 min).

HUVECs = experiment: Western blot of protein expression in HUVECs; type: cell-based, human; settings: 0.5-8.0 μmol/L, 24 h
Procedure: 3.2 After the third generation of human umbilical vein endothelial cells (HUVECs) are cultured in a 6-well plate to more than 80% fusion, the polypeptide mPEG-SC20k-HM-3 is added to final concentrations of 0.5, 1.0, 2.0, 4.0, 8.0 μmol/L, and PBS is used as a blank control. The cells are incubated in a CO2 incubator at 37° C. for 24 h; the cells are digested with 0.25% trypsin and counted, the solution is centrifuged at 3000 rpm for 5 min, and the cells are collected.
as §1, §2, §3, §4, §5
3.8 The membrane is washed for 3 times with PBST, 5 min each time. A primary antibody is added and the membrane stands at 4° C. overnight or is incubated at 37° C. for 2 h.
3.9 The membrane is washed for 3 times with PBST, 5 min each time. A secondary antibody is added and the membrane is incubated at room temperature for more than 2 h. […]

[1] = high dose 40 mg/kg once the other day
[2] = low dose 10 mg/kg once the other day
[3] = medium dose 20 mg/kg once the other day

Q: “mPEG-SC20k-Ile-Val-Arg-Arg-Ala-Asp-Arg-Ala-Ala-Val-Pro-Gly-Gly-Gly-Gly-Arg-Gly-Asp ({mPEG‑SC 20k}-IVRRADRAAVPGGGGRGD) [polypeptide III, No. 3]” was tested. Which clinical scoring (CIA mouse models; [1]) did it give?
A: 2.00 ± 2.37

Q: And the swelling of joints (CIA mouse models; [1])?
A: 0.07 mm

Q: And the swelling of paws (CIA mouse models; [1])?
A: 0.14 ± 0.42 mm

Q: And the clinical scoring (CIA mouse models; [2])?
A: 4.83 ± 2.99

Q: What about the swelling of joints (CIA mouse models; [2]) of the same substance?
A: 0.23 mm

Q: What about the swelling of paws (CIA mouse models; [2]) of the same substance?
A: 0.37 ± 0.35 mm

Q: What about the clinical scoring (CIA mouse models; [3]) of the same substance?
A: 6.33 ± 4.23

Q: And the swelling of joints (CIA mouse models; [3])?
A: 0.12 mm

Q: What about the swelling of paws (CIA mouse models; [3]) of the same substance?
A: 0.34 ± 0.42 mm

Q: What about the “therapeutic effect on collagen-induced arthritis in mice (conclusion)” value (CIA mouse models; mouse, in vivo) of the same substance?
A: CONCLUSION: polypeptide III has therapeutic effect on collagen-induced arthritis in mice

Q: And the “dose with the best inhibitory effect on the expression of TLR-4 protein” value (TLR-4)?
A: 13.5 µM

Q: What about the “expression of TLR-4 protein in rat synovial cells” value (TLR-4; with the increase of dosage) of the same substance?
A: down-regulation

Q: What about the clinical scoring (AIA rat models; [1]) of the same substance?
A: 5.29 ± 3.90

Q: What about the “swelling of left paw” value (AIA rat models; [1]) of the same substance?
A: 4.40 ± 0.91 mm

Q: And the “swelling of right paw” value (AIA rat models; [1])?
A: 1.05 ± 1.31 mm

Q: What about the clinical scoring (AIA rat models; [2]) of the same substance?
A: 5.43 ± 2.15

Q: What about the “swelling of left paw” value (AIA rat models; [2]) of the same substance?
A: 4.40 ± 0.91 mm

Q: And the “swelling of right paw” value (AIA rat models; [2])?
A: 0.76 ± 1.21 mm

Q: What about the clinical scoring (AIA rat models; [3]) of the same substance?
A: 5.71 ± 2.36

Q: And the “swelling of left paw” value (AIA rat models; [3])?
A: 4.48 ± 1.72 mm

Q: What about the “swelling of right paw” value (AIA rat models; [3]) of the same substance?
A: 1.28 ± 1.27 mm

Q: And the “therapeutic effect on adjuvant-induced arthritis in rats (conclusion)” value (AIA rat models; rat, in vivo)?
A: CONCLUSION: polypeptide III has therapeutic effect on adjuvant-induced arthritis, and its effect is higher than that of polypeptide. I.

Q: What about the IL-1β content (IL-1β; 0.56 μmoL/L) of the same substance?
A: 89.77 ± 7.22 pg/mL

Q: What about the Inhibition rate (IL-1β; 0.56 μmoL/L) of the same substance?
A: 90.93%

Q: And the IL-1β content (IL-1β; 1.12 μmoL/L)?
A: 35.17 ± 17.71 pg/mL

Q: And the Inhibition rate (IL-1β; 1.12 μmoL/L)?
A: 96.45%

Q: And the IL-1β content (IL-1β; 2.25 μmoL/L)?
A: 43.78 ± 10.16 pg/mL

Q: And the Inhibition rate (IL-1β; 2.25 μmoL/L)?
A: 95.58%

Q: What about the IL-1β content (IL-1β; 4.50 μmoL/L) of the same substance?
A: 32.04 ± 6.52 pg/mL

Q: And the Inhibition rate (IL-1β; 4.50 μmoL/L)?
A: 96.76%

Q: And the IL-1β content (IL-1β; 9.00 μmoL/L)?
A: 104.83 ± 2.44 pg/mL

Q: What about the Inhibition rate (IL-1β; 9.00 μmoL/L) of the same substance?
A: 89.41%

Q: And the “expression of VEGF in HUVECs” value (HUVECs)?
A: down-regulated

Q: What about the “expression of integrin αν, integrin β3, MEK1, p-MEK1, PI3K, AKT1, p-AKT1, ERK1/2 and p-ERK1/2 in HUVECs” value (HUVECs) of the same substance?
A: down-regulated

From patent US20220202912A1, “Polypeptides in Preparation of Drugs for Treatment or Prevention of Rheumatoid Arthritis” (priority 2011, published 2022)
